Consider 23 compounds from patent US10000484B2, “Inhibitors of the renal outer medullary potassim channel” (MERCK SHARP & DOHME CORP., priority 2013, dated 2018).

The structures appear in SMILES notation.

By IC50 is commonly meant the midpoint of a concentration-inhibition curve.

The target in the test is T1, hROMK (hKir1.1) (Homo sapiens, UniProt P48048).
T1 construct: expressed in transfected cells
T1 sequence (P48048 1-391): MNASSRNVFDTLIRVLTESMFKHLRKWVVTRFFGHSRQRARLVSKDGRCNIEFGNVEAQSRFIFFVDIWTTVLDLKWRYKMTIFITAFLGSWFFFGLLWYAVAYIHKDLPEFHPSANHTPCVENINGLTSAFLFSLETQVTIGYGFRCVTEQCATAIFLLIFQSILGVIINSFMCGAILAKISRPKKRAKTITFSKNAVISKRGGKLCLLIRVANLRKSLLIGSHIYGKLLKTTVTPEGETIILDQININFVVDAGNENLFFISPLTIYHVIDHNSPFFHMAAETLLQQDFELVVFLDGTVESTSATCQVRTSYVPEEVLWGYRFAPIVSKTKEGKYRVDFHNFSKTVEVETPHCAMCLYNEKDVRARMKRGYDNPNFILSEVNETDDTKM
The test can be described thus: Thallium Flux Assay (ROMK channel functional thallium flux assay, FLIPR-Tetra). Format: cell-based. The conditions noted are these: HEK293 cells stably expressing hROMK; 30 min incubation with compound. The method, then: The following Thallium Flux Assay was performed on each of the final product compounds in the Examples. When the final product of an Example was an HCl salt, the salt was run in the Assay.
HEK293 cells stably expressing hROMK (hKir1.1) were grown at 37° C. in a 10% CO2 humidified incubator in complete growth media: Dulbecco's Modified Eagle Medium supplemented with non-essential amino acids, Penicillin/Streptomycin/Glutamine, G418 and FBS. At >80% confluency, aspirate the media from the flask and rinse with 10 mL Calcium/Magnesium-free PBS. Add 5 mL of 1× trypsin (prepared in Ca/Mg Free PBS) to T-225 flask and return flask to 37° C./CO2 incubator for 2-3 minutes. To dislodge the cell, gently bang the side of the flask with your hand. Triturate the cells completely and then transfer the cells to 25 mL complete media. Centrifuge at 1,500 rpm for 6 min followed by resuspension in complete growth media and determine cell concentration. For typical re-seeding, 4E6 cells/T-225 flask will attain >80% confluency in 4 days. Under ideal growth conditions and appropriate tissue culture practices, this cell line is stable for 40-45 passages.
FluxOR Kit Components (Invitrogen F10017)
• FluxOR™ Reagent (Component A) • FluxOR™ Assay Buffer (Component B)—10× Concentrate • PowerLoad™ Concentrate (Component C)—100× Concentrate • Probenecid (Component D)—Lyophilized sample is kept at −20° C. Water soluble, 100× after solubilization in 1 mL water. Store at 4° C. • FluxOR™ Chloride-free Buffer (Component E)—5× Concentrate • Potassium sulfate (K2SO4) Concentrate (Component F)—125 mM in water. Store at 4° C. • Thallium sulfate (Tl2SO4) Concentrate (Component G)—50 mM in water. Store at 4° C. • DMSO (dimethyl sulfoxide, Component H)—1 mL (100%) Reagent Preparation: FluxOR Working Solutions • 1000× FluxOR™ Reagent: Reconstitute a vial of component A in 100 μl DMSO; Mix well; Store 10 μl aliquots at −20° C. • 1× FluxOR™ Assay Buffer: Dilute Component B 10-fold with water; Adjust pH to 7.4 with Hepes/NaOH; Filter and store at 4° C. • Probenecid/Assay Buffer: 100 mL of 1× FluxOR™ Assay Buffer; 1 mL of reconstituted component D; Store at 4° C. • Loading Buffer (per microplate): 10 μl 1000× FluxOR™ Reagent; 100 μl component C; 10 mL Probenecid/Assay Buffer • Compound Buffer (per microplate): 20 mL Probenecid/Assay Buffer; 0.3 mM ouabain (10 mM ouabain in water can be stored in amber bottle/aluminum foil at room temperature); Test compound • 1× FluxOR™ Chloride-Free Buffer: Prepare 1× working solution in water. Can be stored at room temperature • Stimulant Buffer (prepared at 5× final concentration in 1× FluxOR™ Chloride-Free Buffer): 7.5 mM Thallium sulfate and 0.75 mM Potassium sulfate (to give a final assay concentration of 3 mM Thallium/0.3 mM Potassium). Store at 4° C. when not in use. Assay Protocol—
The ROMK channel functional thallium flux assay is performed in 384 wells, using the FLIPR-Tetra instrument. HEK-hKir1.1 cells are seeded in Poly-D-Lysine microplates and kept in a 37° C.-10% CO2 incubator overnight. On the day of the experiment, the growth media is replaced with the FluxOR™ reagent loading buffer and incubated, protected from light, at ambient temperature (23-25° C.) for 90 min. The loading buffer is replaced with assay buffer±test compound followed by 30 min incubation at ambient temperature, where the Thallium/Potassium stimulant is added to the microplate.
1. Seed HEK-hKir1.1 cells (50 μl at 20,000 cells/well) in 384-well PDL coated Microplates
2. Allow cells to adhere overnight in humidified 37° C./10% CO2 incubator
3. Completely remove cell growth media from microplate and replace with 25 μl loading buffer
4. Incubate Microplate at room temperature, protected form light, for 90 min
5. Remove loading buffer and replace with 25 μl 1× Assay Buffer±test compound.
6. Incubate microplate at room temperature, protected from light, for 30 min
7. At FLIPR-Tetra 384: Add stimulant (Thallium/Potassium) solution to microplate and monitor fluorescence. […]
Take `Cc1cc(C#N)ccc1-c1ncc2c(n1)CCN(CCc1ccc3c(c1C)COC3=O)C2` [Example 1, 3-methyl-4-(6-(2-(4-methyl-1-oxo-1,3-dihydroisobenzofuran-5-yl)ethyl)-5,6,7,8-tetrahydropyrido[4,3-d]pyrimidin-2-yl)benzonitrile]: the concentration for half-maximal inhibition (IC50) was found to be 477 nM.
In the case of `N#Cc1ccc(-n2cc3c(n2)CCN(CCc2ccc4c(c2)COC4=O)C3)cc1` [Example 5, 4-{5-[2-(1-oxo-1,3-dihydro-2-benzofuran-5-yl)ethyl]-4,5,6,7-tetrahydro-2H-pyrazolo[4,3-c]pyridin-2-yl}benzonitrile], the IC50 was determined as 43.8 nM.
As for `O=C1OCc2cc(CCN3CCc4nc(-c5ccc(-n6cnnn6)cc5)ncc4C3)ccc21` [Example 6, 6-[2-(1-oxo-1,3-dihydro-2-benzofuran-5-yl)ethyl]-2-[4-(1H-tetrazol-1-34)phenyl]-5,6,7,8-tetrahydropyrido[4,3-d]pyrimidine-1,6-diium], the figure is 74 nM; as for `Cc1c(CCN2CCc3nc(-c4ccc(-n5cnnn5)cc4)ncc3C2)ccc2c1COC2=O` [Example 7, 6-[2-(4-methyl-1-oxo-1,3-dihydro-2-benzofuran-5-yl)ethyl]-2-[4-(1H-tetrazol-1-yl)phenyl]-5,6,7,8-tetrahydropyrido[4,3-d]pyrimidine-1,6-diium], 168 nM.
On to `COc1cc(-c2ncc3c(n2)CCN(CCc2ccc4c(c2C)COC4=O)C3)ccc1C#N` [Example 11, 2-methoxy-4-{6-[2-(4-methyl-1-oxo-1,3-dihydro-2-benzofuran-5-yl)ethyl]-5,6,7,8-tetrahydropyrido[4,3-d]pyrimidin-2-yl}benzonitrile], for which the IC50 amounted to 83.8 nM.
As for `Cc1c(CCN2CCn3c(-c4ccc5c(c4)COC5=O)cnc3C2)ccc2c1COC2=O` [Example 12, 4-methyl-5-{2-[3-(1-oxo-1,3-dihydro-2-benzofuran-5-yl)-5,6-dihydroimidazo[1,2-a]pyrazin-7(8H)-yl]ethyl}-2-benzofuran-1(3H)-one], the figure is 124 nM; as for `Cc1c(CCN2CCn3cc(-c4ccc5c(c4)COC5=O)nc3C2)ccc2c1COC2=O` [Example 13, 4-methyl-5-{2-[2-(1-oxo-1,3-dihydro-2-benzofuran-5-yl)-5,6-dihydroimidazo[1,2-a]pyrazin-7(8H)-yl]ethyl}-2-benzofuran-1(3H)-one], 134 nM; as for `COc1cc(-c2nnc3n2CCN(CCc2ccc4c(c2C)COC4=O)C3)ccc1C#N` [Example 14, 2-methoxy-4-{7-[2-(4-methyl-1-oxo-1,3-dihydro-2-benzofuran-5-yl)ethyl]-5,6,7,8-tetrahydro[1,2,4]triazolo[4,3-a]pyrazin-3-yl}benzonitrile], 85 nM.
In the case of `Cc1c(CCN2CCn3nc(-c4ccc5c(c4)COC5=O)nc3C2)ccc2c1COC2=O` [Example 16, 4-methyl-5-{2-[2-(1-oxo-1,3-dihydro-2-benzofuran-5-yl)-5,6-dihydro[1,2,4]triazolo[1,5-a]pyrazin-7(8H)-yl]ethyl}-2-benzofuran-1(3H)-one], the IC50 amounted to 89 nM.
On to `Cc1c(CCN2CCn3cc(-c4ccc5c(c4)CCOC5=O)nc3C2)ccc2c1COC2=O` [Example 17, 6-{7-[2-(4-methyl-1-oxo-1,3-dihydro-2-benzofuran-5-yl)ethyl]-5,6,7,8-tetrahydroimidazo[1,2-a]pyrazin-2-yl}-3,4-dihydro-1H-isochromen-1-one], for which the IC50 came to 654 nM.
As for `Cc1c(CCN2CCc3nc(-c4ccc5c(c4)COC5=O)oc3C2)ccc2c1COC2=O` [Example 18, 4-methyl-5-{2-[2-(1-oxo-1,3-dihydro-2-benzofuran-5-yl)-6,7-dihydro[1,3]oxazolo[5,4-c]pyridin-5(4H)-yl]ethyl}-2-benzofuran-1(3H)-one], the figure is 74.7 nM; as for `C[C@H]1Cc2cc(CCN3CCn4cc(-c5ccc6c(c5)COC6=O)nc4C3)ccc2C(=O)O1` [Example 19, (3S)-3-methyl-6-{2-[2-(1-oxo-1,3-dihydro-2-benzofuran-5-yl)-5,6-dihydroimidazo[1,2-a]pyrazin-7(8H)-yl]ethyl}-3,4-dihydro-1H-isochromen-1-one], 198 nM; as for `O=C1OCCc2cc(CCN3CCn4cc(-c5ccc6c(c5)COC6=O)nc4C3)ccc21` [Example 20, 6-{2-[2-(1-oxo-1,3-dihydro-2-benzofuran-5-yl)-5,6-dihydroimidazo[1,2-a]pyrazin-7(8H)-yl]ethyl}-3,4-dihydro-1H-isochromen-1-one], 192 nM.
As for `Cc1c(CCN2CCc3nc(-c4ccc(C#N)cn4)ncc3C2)ccc2c1COC2=O` [Example 21], the IC50 stood at 449 nM.
As for `Cc1c(CCN2CCc3nc(-c4ccc(F)c(C#N)c4)ncc3C2)ccc2c1COC2=O` [Example 22], the figure is 441 nM; as for `COc1ccc(-c2ncc3c(n2)CCN(CCc2ccc4c(c2C)COC4=O)C3)cc1C#N` [Example 23], 208 nM.
`Cc1c(CCN2CCn3c(nn(-c4ccc(C#N)c(F)c4)c3=O)C2)ccc2c1COC2=O` [Example 24, 2-fluoro-4-{7-[2-(4-methyl-1-oxo-1,3-dihydro-2-benzofuran-5-yl)ethyl]-3-oxo-5,6,7,8-tetrahydro[1,2,4]triazolo[4,3-a]pyrazin-2(3H)-yl}benzonitrile]: the IC50 was found to be 177 nM.
As for `Cc1c(CCN2CCn3c(nn(-c4ccc5c(c4)COC5=O)c3=O)C2)ccc2c1COC2=O` [Example 25, 7-[2-(4-methyl-1-oxo-1,3-dihydro-2-benzofuran-5-yl)ethyl]-2-(1-oxo-1,3-dihydro-2-benzofuran-5-yl)-5,6,7,8-tetrahydro[1,2,4]triazolo[4,3-a]pyrazin-3(2H)-one], the figure is 92.8 nM; as for `Cc1c(CCN2CCc3nc(-c4ccc(C#N)cc4F)ncc3C2)ccc2c1COC2=O` [Example 26], 314 nM.
Consider `Cc1c(CCN2CCc3nc(-c4ccc(C#N)c(F)c4)ncc3C2)ccc2c1COC2=O` [Example 27], for which the IC50 was 70.2 nM.
Regarding `Cc1c(CCN2CC[C@H]3[C@@H](C2)OC(=O)N3Cc2ccc3c(c2C)COC3=O)ccc2c1COC2=O` [Example 28], the IC50 came to 113 nM.
Regarding `Cc1c(CCN2CC[C@@H]3[C@@H](C2)OC(=O)N3Cc2ccc3c(c2C)COC3=O)ccc2c1COC2=O` [Example 29], the half-inhibitory concentration (IC50) is 201 nM.
As for `Cc1c(CCN2CCc3c(cnn3-c3ccc(C#N)c(F)c3)C2)ccc2c1COC2=O` [Example 30, 2-fluoro-4-(5-(2-(4-methyl-1-oxo-1,3-dihydroisobenzofuran-5-yl)ethyl)-4,5,6,7-tetrahydro-1H-pyrazolo[4,3-c]pyridin-1-yl)benzonitrile], the figure is 27.5 nM.
